In patent publication US20080051466A1, “Isoalpha acid based protein kinase modulation cancer treatment” (Metaproteomics, LLC, priority 2006, published 2008):

How the values were obtained:
Experiment in all cases: KinaseProfiler Assay
Assay type in all cases: biochemical
CK1γ1 = CK1γ1 (Homo sapiens, UniProt Q9HCP0); details: read-out: CK1γ1, % of Control
CDK5/p35 = CDK5/p35 (Homo sapiens, UniProt Q00535); details: read-out: CDK5/p35, % of Control
Flt4 = Flt4 (Homo sapiens, UniProt P35916); details: read-out: Flt4, % of Control
ErbB4 = ErbB4 (Homo sapiens, UniProt Q15303); details: read-out: ErbB4, % of Control
TSSK2 = target: T1, TSSK2 (Homo sapiens, UniProt Q96PF2); details: read-out: TSSK2, % of Control
T1 sequence (Q96PF2 1-358): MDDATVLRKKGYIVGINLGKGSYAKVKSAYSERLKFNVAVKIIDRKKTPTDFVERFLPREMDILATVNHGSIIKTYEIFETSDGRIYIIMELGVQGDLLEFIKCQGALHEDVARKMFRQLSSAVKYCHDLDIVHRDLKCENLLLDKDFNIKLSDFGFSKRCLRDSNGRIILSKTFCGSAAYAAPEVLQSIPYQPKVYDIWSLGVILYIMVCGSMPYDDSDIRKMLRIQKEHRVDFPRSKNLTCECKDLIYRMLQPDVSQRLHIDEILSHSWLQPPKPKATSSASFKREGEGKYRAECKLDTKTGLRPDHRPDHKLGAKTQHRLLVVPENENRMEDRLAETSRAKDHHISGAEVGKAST

PKBα = PKBα (Homo sapiens, UniProt P31749); details: read-out: PKBα, % of Control
CaMKI = CaMKI (Homo sapiens, UniProt Q14012); details: read-out: CaMKI, % of Control
Abl(T315I) = Abl(T315I) (Homo sapiens, UniProt P00519, T315I); details: read-out: Abl(T315I), % of Control
MSK2 = MSK2 (Homo sapiens, UniProt O75676); details: read-out: MSK2, % of Control
CHK2 = CHK2 (Homo sapiens, UniProt O96017); details: read-out: CHK2, % of Control
IGF-1R = IGF-1R (Homo sapiens, UniProt P08069); details: read-out: IGF-1R, % of Control
CK1γ3 = CK1γ3 (Homo sapiens, UniProt Q9Y6M4); details: read-out: CK1γ3, % of Control
Pim-1 = Pim-1 (Homo sapiens, UniProt P11309); details: read-out: Pim-1, % of Control
cSRC = cSRC (Homo sapiens, UniProt P12931); details: read-out: cSRC, % of Control
IR = IR (Homo sapiens, UniProt P06213); details: read-out: IR, % of Control
cKit(D816H) = cKit(D816H) (Homo sapiens, UniProt P10721, D816H); details: read-out: cKit(D816H), % of Control
Fes = Fes (Homo sapiens, UniProt P07332); details: read-out: Fes, % of Control
PKBγ = PKBγ (Homo sapiens, UniProt Q9Y243); details: read-out: PKBγ, % of Control
GSK3β = GSK3β (Homo sapiens, UniProt P49841); details: read-out: GSK3β, % of Control
Chain of GSK3β (P49841 whole entry): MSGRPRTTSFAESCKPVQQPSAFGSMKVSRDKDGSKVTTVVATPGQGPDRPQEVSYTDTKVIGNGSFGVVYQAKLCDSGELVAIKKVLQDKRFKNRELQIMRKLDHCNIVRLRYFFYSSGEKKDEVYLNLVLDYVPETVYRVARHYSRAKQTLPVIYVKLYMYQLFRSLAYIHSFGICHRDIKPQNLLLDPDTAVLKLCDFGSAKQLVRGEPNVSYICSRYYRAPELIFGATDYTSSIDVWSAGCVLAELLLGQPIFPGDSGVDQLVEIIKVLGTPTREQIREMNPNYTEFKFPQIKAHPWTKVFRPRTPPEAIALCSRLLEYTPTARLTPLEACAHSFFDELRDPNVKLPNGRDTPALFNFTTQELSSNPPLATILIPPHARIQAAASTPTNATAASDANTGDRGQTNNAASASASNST

Chain of Pim-1 (P11309 whole entry): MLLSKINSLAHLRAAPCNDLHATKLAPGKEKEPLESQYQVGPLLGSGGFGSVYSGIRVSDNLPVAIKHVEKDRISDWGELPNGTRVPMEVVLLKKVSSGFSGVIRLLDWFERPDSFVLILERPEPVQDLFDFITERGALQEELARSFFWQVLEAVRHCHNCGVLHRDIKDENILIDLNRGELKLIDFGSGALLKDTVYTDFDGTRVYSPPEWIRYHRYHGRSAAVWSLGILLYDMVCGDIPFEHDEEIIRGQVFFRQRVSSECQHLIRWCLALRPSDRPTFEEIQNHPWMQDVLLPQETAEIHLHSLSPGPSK
Chain of CK1γ3 (Q9Y6M4 whole entry): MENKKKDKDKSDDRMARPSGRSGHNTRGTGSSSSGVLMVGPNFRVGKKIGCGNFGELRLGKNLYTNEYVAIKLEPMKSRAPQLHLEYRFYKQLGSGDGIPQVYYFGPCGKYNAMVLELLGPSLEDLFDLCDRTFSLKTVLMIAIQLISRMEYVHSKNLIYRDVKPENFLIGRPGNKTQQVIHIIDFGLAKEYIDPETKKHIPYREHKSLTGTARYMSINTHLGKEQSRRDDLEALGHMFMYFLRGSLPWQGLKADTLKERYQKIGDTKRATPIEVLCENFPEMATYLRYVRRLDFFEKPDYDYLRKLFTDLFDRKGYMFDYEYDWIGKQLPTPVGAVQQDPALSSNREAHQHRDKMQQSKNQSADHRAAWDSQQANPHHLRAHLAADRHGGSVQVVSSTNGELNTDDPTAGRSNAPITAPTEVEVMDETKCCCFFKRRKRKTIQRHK
Chain of PKBα (P31749 whole entry): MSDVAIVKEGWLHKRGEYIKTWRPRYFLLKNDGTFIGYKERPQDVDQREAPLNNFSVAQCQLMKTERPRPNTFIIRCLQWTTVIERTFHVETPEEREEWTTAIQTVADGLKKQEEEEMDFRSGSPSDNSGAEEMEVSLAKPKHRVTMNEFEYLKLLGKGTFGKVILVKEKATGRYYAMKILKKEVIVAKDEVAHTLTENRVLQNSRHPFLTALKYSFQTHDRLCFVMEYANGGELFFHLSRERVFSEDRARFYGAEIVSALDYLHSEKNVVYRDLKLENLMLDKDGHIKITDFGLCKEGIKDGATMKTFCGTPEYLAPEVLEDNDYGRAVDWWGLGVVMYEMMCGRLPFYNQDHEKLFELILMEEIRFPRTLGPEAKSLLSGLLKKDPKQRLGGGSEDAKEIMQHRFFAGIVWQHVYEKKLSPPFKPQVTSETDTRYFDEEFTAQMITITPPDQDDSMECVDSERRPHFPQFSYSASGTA
Chain of ErbB4 (Q15303 26-1308): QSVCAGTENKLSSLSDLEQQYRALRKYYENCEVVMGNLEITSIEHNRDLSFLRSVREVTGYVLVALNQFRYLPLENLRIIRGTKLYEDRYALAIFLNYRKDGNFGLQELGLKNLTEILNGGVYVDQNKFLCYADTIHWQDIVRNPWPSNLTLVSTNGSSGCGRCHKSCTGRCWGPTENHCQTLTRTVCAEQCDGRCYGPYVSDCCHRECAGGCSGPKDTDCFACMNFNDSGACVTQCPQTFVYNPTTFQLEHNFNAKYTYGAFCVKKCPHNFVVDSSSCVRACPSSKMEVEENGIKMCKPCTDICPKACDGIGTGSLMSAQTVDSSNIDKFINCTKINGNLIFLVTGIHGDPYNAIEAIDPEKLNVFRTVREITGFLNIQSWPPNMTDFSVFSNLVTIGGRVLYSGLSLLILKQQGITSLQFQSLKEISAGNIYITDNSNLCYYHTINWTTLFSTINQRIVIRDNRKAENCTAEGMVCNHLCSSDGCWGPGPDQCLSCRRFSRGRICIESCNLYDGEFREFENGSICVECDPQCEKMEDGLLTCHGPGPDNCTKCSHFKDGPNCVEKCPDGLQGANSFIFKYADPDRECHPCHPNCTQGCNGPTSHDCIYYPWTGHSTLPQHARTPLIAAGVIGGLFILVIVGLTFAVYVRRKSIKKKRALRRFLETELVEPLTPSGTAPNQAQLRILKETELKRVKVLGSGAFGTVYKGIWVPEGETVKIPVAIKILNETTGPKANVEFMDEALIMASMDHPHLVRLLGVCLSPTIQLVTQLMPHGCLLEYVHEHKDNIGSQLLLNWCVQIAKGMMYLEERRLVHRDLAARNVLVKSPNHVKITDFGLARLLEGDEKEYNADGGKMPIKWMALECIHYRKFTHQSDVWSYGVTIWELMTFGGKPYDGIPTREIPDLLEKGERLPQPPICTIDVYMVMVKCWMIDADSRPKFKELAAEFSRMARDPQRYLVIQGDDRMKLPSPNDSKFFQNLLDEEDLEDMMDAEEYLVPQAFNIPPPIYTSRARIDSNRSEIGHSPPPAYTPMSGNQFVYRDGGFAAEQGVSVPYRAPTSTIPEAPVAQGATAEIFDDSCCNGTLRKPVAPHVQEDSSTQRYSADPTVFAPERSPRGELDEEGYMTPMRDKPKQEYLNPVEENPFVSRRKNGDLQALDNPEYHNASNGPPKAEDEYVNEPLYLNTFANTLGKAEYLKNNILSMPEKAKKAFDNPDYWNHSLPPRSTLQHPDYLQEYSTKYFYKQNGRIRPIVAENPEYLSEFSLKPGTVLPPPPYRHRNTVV
Chain of PKBγ (Q9Y243 whole entry): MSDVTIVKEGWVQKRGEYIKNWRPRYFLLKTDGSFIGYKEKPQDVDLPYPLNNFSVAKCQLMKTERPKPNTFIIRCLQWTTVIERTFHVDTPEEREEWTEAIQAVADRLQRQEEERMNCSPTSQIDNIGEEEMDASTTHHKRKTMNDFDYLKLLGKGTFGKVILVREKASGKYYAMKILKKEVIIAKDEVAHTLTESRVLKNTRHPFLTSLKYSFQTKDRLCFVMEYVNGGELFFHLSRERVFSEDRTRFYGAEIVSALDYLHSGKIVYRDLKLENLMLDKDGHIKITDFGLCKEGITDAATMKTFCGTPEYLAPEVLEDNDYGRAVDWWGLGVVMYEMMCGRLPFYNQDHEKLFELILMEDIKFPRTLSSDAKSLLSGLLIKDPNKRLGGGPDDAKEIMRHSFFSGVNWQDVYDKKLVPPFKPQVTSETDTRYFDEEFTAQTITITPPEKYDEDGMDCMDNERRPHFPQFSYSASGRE
Chain of MSK2 (O75676 whole entry): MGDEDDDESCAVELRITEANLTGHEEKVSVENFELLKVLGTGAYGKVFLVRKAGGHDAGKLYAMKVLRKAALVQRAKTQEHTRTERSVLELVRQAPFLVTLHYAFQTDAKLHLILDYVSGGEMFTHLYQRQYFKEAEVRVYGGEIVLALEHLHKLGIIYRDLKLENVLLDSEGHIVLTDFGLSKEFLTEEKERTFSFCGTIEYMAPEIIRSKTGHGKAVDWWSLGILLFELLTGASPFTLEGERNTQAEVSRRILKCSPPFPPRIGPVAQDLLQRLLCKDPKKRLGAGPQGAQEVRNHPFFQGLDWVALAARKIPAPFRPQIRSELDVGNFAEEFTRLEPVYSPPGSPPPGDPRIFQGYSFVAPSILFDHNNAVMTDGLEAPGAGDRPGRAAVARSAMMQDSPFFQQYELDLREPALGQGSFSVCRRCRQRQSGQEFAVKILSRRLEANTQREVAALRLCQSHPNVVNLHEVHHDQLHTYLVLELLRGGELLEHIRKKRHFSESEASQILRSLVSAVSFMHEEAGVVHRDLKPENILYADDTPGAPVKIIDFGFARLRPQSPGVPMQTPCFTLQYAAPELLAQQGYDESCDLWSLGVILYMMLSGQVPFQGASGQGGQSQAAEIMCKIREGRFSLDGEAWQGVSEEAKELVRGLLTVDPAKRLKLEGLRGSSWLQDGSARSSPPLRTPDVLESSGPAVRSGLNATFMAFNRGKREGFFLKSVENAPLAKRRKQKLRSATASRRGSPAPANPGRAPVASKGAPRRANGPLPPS
Chain of CK1γ1 (Q9HCP0 whole entry): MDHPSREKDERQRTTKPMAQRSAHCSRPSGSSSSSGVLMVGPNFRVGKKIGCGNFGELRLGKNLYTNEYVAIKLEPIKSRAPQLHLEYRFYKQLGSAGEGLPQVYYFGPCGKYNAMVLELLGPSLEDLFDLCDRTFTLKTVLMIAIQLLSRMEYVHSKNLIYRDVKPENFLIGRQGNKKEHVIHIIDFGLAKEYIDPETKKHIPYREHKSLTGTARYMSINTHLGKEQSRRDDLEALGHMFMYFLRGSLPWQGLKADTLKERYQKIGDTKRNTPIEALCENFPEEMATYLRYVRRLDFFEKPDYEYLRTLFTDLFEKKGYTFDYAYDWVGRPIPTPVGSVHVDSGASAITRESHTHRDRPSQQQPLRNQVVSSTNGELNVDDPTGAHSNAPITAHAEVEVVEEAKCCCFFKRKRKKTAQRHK
Chain of CaMKI (Q14012 whole entry): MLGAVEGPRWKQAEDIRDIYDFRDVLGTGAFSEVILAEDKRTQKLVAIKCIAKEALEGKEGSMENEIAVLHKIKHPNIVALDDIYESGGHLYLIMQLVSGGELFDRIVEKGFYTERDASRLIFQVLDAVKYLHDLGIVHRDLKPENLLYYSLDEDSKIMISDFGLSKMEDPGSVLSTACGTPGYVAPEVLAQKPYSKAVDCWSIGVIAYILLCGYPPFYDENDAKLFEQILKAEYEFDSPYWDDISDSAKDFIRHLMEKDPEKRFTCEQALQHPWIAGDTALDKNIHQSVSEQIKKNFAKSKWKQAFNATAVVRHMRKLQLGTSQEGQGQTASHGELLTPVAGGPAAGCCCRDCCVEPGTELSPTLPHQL

For `COc1cc(O)c(CC=C(C)C)c(O)c1C(=O)/C=C/c1ccc(O)cc1` [Xanthohumol, xanthohumol], the remaining activity at 1 µg/mL (CK1γ1; 1 ug/ml) was 101%, the remaining activity at 5 µg/mL (CK1γ1; 5 ug/ml) was 79% and the remaining activity at 25 µg/mL (CK1γ1; 25 ug/ml) was 50%. For the same molecule, the remaining activity at 50 µg/mL (CK1γ1; 50 ug/ml) was 26%, the remaining activity at 25 µg/mL (CDK5/p35; 25 ug/ml) was 41% and the remaining activity at 50 µg/mL (CDK5/p35; 50 ug/ml) was 44%. The remaining activity at 1 µg/mL (Flt4; 1 ug/ml) was 74%, the remaining activity at 5 µg/mL (Flt4; 5 ug/ml) was 10% and the remaining activity at 25 µg/mL (Flt4; 25 ug/ml) was 11%. For the same molecule, the remaining activity at 1 µg/mL (ErbB4; 1 ug/ml) was 132%, the remaining activity at 5 µg/mL (ErbB4; 5 ug/ml) was 85% and the remaining activity at 25 µg/mL (ErbB4; 25 ug/ml) was 52%. For the same molecule, the remaining activity at 50 µg/mL (ErbB4; 50 ug/ml) was 27%, the remaining activity at 1 µg/mL (TSSK2; 1 ug/ml) was 102% and the remaining activity at 5 µg/mL (TSSK2; 5 ug/ml) was 95%. It also gave a remaining activity at 25 µg/mL (TSSK2; 25 ug/ml) of 61%, a remaining activity at 50 µg/mL (TSSK2; 50 ug/ml) of 48% and a remaining activity at 1 µg/mL (PKBα; 1 ug/ml) of 102%. It also gave a remaining activity at 25 µg/mL (PKBα; 25 ug/ml) of 18%, a remaining activity at 50 µg/mL (PKBα; 50 ug/ml) of 5% and a remaining activity at 1 µg/mL (CaMKI; 1 ug/ml) of 142%. For the same molecule, the remaining activity at 25 µg/mL (CaMKI; 25 ug/ml) was 3%, the remaining activity at 1 µg/mL (Abl(T315I); 1 ug/ml) was 126% and the remaining activity at 5 µg/mL (Abl(T315I); 5 ug/ml) was 115%. The remaining activity at 25 µg/mL (Abl(T315I); 25 ug/ml) was 16%, the remaining activity at 1 µg/mL (MSK2; 1 ug/ml) was 126% and the remaining activity at 5 µg/mL (MSK2; 5 ug/ml) was 61%. For the same molecule, the remaining activity at 25 µg/mL (MSK2; 25 ug/ml) was 8%, the remaining activity at 50 µg/mL (MSK2; 50 ug/ml) was 19% and the remaining activity at 1 µg/mL (CHK2; 1 ug/ml) was 25%. For the same molecule, the remaining activity at 5 µg/mL (CHK2; 5 ug/ml) was 5%, the remaining activity at 25 µg/mL (CHK2; 25 ug/ml) was 3% and the remaining activity at 25 µg/mL (IGF-1R; 25 ug/ml) was 129%. The remaining activity at 50 µg/mL (IGF-1R; 50 ug/ml) was 139%, the remaining activity at 1 µg/mL (CK1γ3; 1 ug/ml) was 98% and the remaining activity at 5 µg/mL (CK1γ3; 5 ug/ml) was 51%. For the same molecule, the remaining activity at 25 µg/mL (CK1γ3; 25 ug/ml) was 22%, the remaining activity at 50 µg/mL (CK1γ3; 50 ug/ml) was 15% and the remaining activity at 1 µg/mL (Pim-1; 1 ug/ml) was 88%. The remaining activity at 5 µg/mL (Pim-1; 5 ug/ml) was 35%, the remaining activity at 50 µg/mL (Pim-1; 50 ug/ml) was 3% and the remaining activity at 1 µg/mL (cSRC; 1 ug/ml) was 92%. It also gave a remaining activity at 5 µg/mL (cSRC; 5 ug/ml) of 50%, a remaining activity at 25 µg/mL (cSRC; 25 ug/ml) of 27% and a remaining activity at 50 µg/mL (cSRC; 50 ug/ml) of 21%. It also gave a remaining activity at 1 µg/mL (IR; 1 ug/ml) of 120%, a remaining activity at 5 µg/mL (IR; 5 ug/ml) of 108% and a remaining activity at 1 µg/mL (cKit(D816H); 1 ug/ml) of 94%. The remaining activity at 5 µg/mL (cKit(D816H); 5 ug/ml) was 45%, the remaining activity at 25 µg/mL (cKit(D816H); 25 ug/ml) was 14% and the remaining activity at 1 µg/mL (Fes; 1 ug/ml) was 131%. The remaining activity at 5 µg/mL (Fes; 5 ug/ml) was 106%, the remaining activity at 25 µg/mL (Fes; 25 ug/ml) was 102% and the remaining activity at 50 µg/mL (Fes; 50 ug/ml) was 26%. The remaining activity at 1 µg/mL (PKBγ; 1 ug/ml) was 104%, the remaining activity at 5 µg/mL (PKBγ; 5 ug/ml) was 104% and the remaining activity at 25 µg/mL (PKBγ; 25 ug/ml) was 12%. It also gave a remaining activity at 1 µg/mL (GSK3β; 1 ug/ml) of 120%, a remaining activity at 5 µg/mL (GSK3β; 5 ug/ml) of 99% and a remaining activity at 25 µg/mL (GSK3β; 25 ug/ml) of 25%. The remaining activity at 50 µg/mL (GSK3β; 50 ug/ml) was 3%.
